Earlier results as cited in patent US4994542A, “Surgical adhesive” (Asahi Glass Co., Ltd., priority 1988, dated 1991).

Legend:
[1] = aromatic polyisocyanates, general statement
[2] = hydrolysis products of TDI and MDI

## diphenylmethane diisocyanates [MDI]
[1]
  mutagenic activity: high mutagenic activity

## tolylene diisocyanates [TDI]
[1]
  mutagenic activity: high mutagenic activity

## tolylene diamine
[2]
  activity in a microbial mutagenicity test (Ames test): high activity

## diaminodiphenylmethane
[2]
  activity in a microbial mutagenicity test (Ames test): high activity
